Results taken from patent US7585839B2, “Medical uses of intercellular communication facilitating compounds” (Zealand Pharma A/S, priority 2001, dated 2009).
Where a SMILES comes first, the peptide text is derived from it. [ ]: non-standard residue; d: D form. The star is where a group is joined. Dnp = O=[N+]([O-])c1ccc(*)c([N+](=O)[O-])c1; X1 = [N-]=[N+]=Nc1cc(O)c(C(=O)*)cc1I; Hyp = O=C(O)[C@@H]1C[C@@H](O)CN1; dHyp = O=C(O)[C@H]1C[C@H](O)CN1; Pip = O=C(O)[C@@H]1CCCCN1; Thz = O=C(O)[C@@H]1CSCN1; Acm = CC(=O)NC*; Sar = CNCC(=O)O

System: calcium-induced arrythmias
Assay: Calcium-induced arrhythmia model in mice (CaCl2-induced 2nd degree AV-block)
Format: in vivo
Set-up: CaCl2 mice Score: scale not given here
Settings: for CaCl2 mice Score / CaCl2 mice In vivo, %: calcium chloride induced arrythmia model; for In vivo activity: maximal effect, increase in time until 2nd degree AV-block relative to vehicle treated mice, i.v.
Description: The antiarrhythmic effects of compounds of this invention were tested in an in vivo model of calcium-induced arrythmias according to the model of Lynch et al.^[37]. […]. Commercial solutions of hypnorm and midazolam were diluted 1:1 in distilled water and one part diluted Hypnorm® is mixed with one part diluted midazolam.
The anaesthesia was induced by s.c. administration in a dose of 0.05-0.075 μl/10 gram mouse. An i.v. cannula was inserted into the tail vein. The lead II ECG signal was recorded continuously by positioning of a stainless steel ECG electrodes on the right forelimb and on the left hind limb. The ground electrode was placed on the right hind limb. The signal was amplified (×5.000-10.000) and filtered (0.1-150 Hz) via a Hugo Sachs Electronic model 689 ECG module. The analogue signal was digitised via a 12 bit data acquisition board (Data Translation model DT321) and sampled at 1000 Hz using the Notocord HEM 3.1 software for Windows NT. After a 10-min equilibration period, the test sample of drug was injected into the tail vein. Mice pre-treated with vehicle were tested as a measure of the control level in untreated animals. The injection volume was 100 μl in all experiments. Infusion of CaCl2 (30 mg/ml, 0.1 ml/min≈100 mg/kg/min (calciumchlorid-2-hydrat, Riedel-de Haën, Germany)) was started 3 min after i.v. administration of drug or vehicle.
The time lag to onset of 2nd degree AV-block was determined as the time from the start of CaCl2 infusion until the first arrhythmic event occured. An event of 2nd degree AV-block was defined as intermittent failure of the AV conduction characterised by a P-wave without the concomitant QRS complex.
Responses were expressed relative to the time until 2nd degree AV-block occurred in vehicle treated mice.

Compound	CaCl2 mice Score	In vivo activity	CaCl2 mice In vivo, %
C[C@H](NC(=O)CN)C(=O)N(C)CC(=O)N1C[C@H](O)C[C@H]1C(=O)N1CCC[C@H]1C(=O)N[C@@H](Cc1ccc(O)cc1)C(N)=O [Compound 30, H-Gly-Ala-Sar-Hyp-Pro-Tyr-NH2] (H-GA[Sar][Hyp]PY-NH2)	2	++ (++ refers to 30-50% increase in time until arrhythmia)	
3(4-hydroxyphenyl)propionyl-Pro-Hyp-Gly-Ala-Gly-Lys-Lys-Lys-Lys-Lys-Lys-NH2 [Compound 51]	1		21 +/− 17%
C[C@H](NC(=O)CNC(=O)[C@H](CC(N)=O)NC(=O)[C@H](Cc1ccc(O)cc1)NC(=O)[C@@H]1CCCN1C(=O)[C@@H]1C[C@@H](O)CN1)C(=O)NCC(N)=O [Compound 28, H-Hyp-Pro-Tyr-Asn-Gly-Ala-Gly-NH2] (H-[Hyp]PYNGAG-NH2)	2	(+) ((+) refers to <15% in time until arrhythmia)	
Cyclo(Tyr-Pro-4Hyp-Gly-Ala-Gly-Asn) [Compound 3]	2	+++ (+++ refers to >60% increase in time until arrhythmia)	59 +/− 9%
Ac-Gly-Asn-Tyr-NH2 [Compound 40]	2	++ (++ refers to 30-50% increase in time until arrhythmia)	46 +/− 9%
NC(=O)C[C@@H](NC(=O)[C@@H](N)Cc1ccc(O)cc1)C(=O)NCC(=O)O [H-Y-DN-G-OH] (H-Tyr-[dN]-Gly-OH)			39 +/− 9%
NCC(=O)N[C@@H](CCCCNc1ccc([N+](=O)[O-])cc1[N+](=O)[O-])C(=O)N[C@@H](Cc1ccc(O)cc1)C(N)=O [H-GK(DNP)Y-NH2] (H-Gly-Lys(Dnp)-Tyr-NH2)			25 +/− 7%
NCC(=O)N[C@H](CC(N)=O)C(=O)N[C@@H](Cc1ccc(O)cc1)C(N)=O [H-G-DN-Y-NH2] (H-Gly-[dN]-Tyr-NH2)			37 +/− 10%
3-(4-hydroxyphenyl)propionyl-Pro-Hyp-Gly-Ala-Gly-OH [HP5, reference compound]	2	++ (++ refers to 30-50% increase in time until arrhythmia)	50 +/− 11%
CF3C(O)-AAP10-NH2	3		48 +/− 13%
CC(=O)NCC(=O)N[C@@H](CC(=O)O)C(=O)N[C@@H](CC(N)=O)C(=O)N[C@@H](Cc1ccc(O)cc1)C(N)=O [Ac-G-D-N-Y-NH2] (Ac-GDNY-NH2)			19 +/− 8%
C[C@H](NC(=O)CN)C(=O)NCC(=O)N1CCC[C@@H]1C(=O)N[C@@H](C)C(=O)N[C@@H](Cc1ccc(O)cc1)C(N)=O [Compound 7, H-Gly-Ala-Gly-D-Pro-Ala-Tyr-NH2] (H-GAG[dP]AY-NH2)	1		
C[C@H](NC(=O)CNC(=O)[C@@H]1C[C@@H](O)CN1C(=O)[C@@H]1CCCN1C(=O)c1cc(I)c(N=[N+]=[N-])cc1O)C(=O)NCC(N)=O [Compound 32, ASAL(mono-iodo)-Pro-Hyp-Gly-Ala-Gly-NH2] (X1-P[Hyp]GAG-NH2)		+++ (+++ refers to >60% increase in time until arrhythmia)	
C[C@H](NC(=O)CN)C(=O)NCC(=O)N1C[C@H](O)C[C@H]1C(=O)N1CCC[C@H]1C(=O)N[C@@H](Cc1ccc(O)cc1)C(=O)N[C@@H](CC(N)=O)C(N)=O [H-AAP-10-Asn-NH2] (H-GAG[Hyp]PYN-NH2)			31 +/− 6%
NCC(=O)NCC(=O)N[C@@H](Cc1ccc(O)cc1)C(N)=O [H-GGY-NH2] (H-Gly-Gly-Tyr-NH2)			39 +/− 9%
H-DY-DN-G-NH2	1		25 +/− 9%
H-GAGGPY-NH2 [H-GAGGPY-NH2]			32 +/− 9%

Compound	CaCl2 mice Score	In vivo activity	CaCl2 mice In vivo, %
CC(=O)N[C@@H](Cc1ccc(O)cc1)C(=O)N1CCC[C@H]1C(=O)N1C[C@H](O)C[C@H]1C(=O)NCC(=O)N[C@@H](C)C(=O)NCC(=O)O [Compound 1, Ac-Tyr-Pro-4Hyp-Gly-Ala-Gly-OH] (Ac-YP[Hyp]GAG-OH)		+ (+ refers to 15-29% increase in time until arrhythmia)	50 +/− 20%
H-Gly-Ala-Gly-Asn-Tyr-NH2 [Compound 39]	2	+++ (+++ refers to >60% increase in time until arrhythmia)	53 +/− 15%
H-GAG[Hyp]PYKKKKKK-OH [Compound 48]	3		64 +/− 10%
C[C@H](NC(=O)CN)C(=O)NCC(=O)N1C[C@@H](O)C[C@@H]1C(=O)N[C@@H](C)C(=O)N[C@@H](Cc1ccc(O)cc1)C(N)=O [Compound 9, H-Gly-Ala-Gly-D-Hyp-Ala-Tyr-NH2] (H-GAG[dHyp]AY-NH2)	1	+ (+ refers to 15-29% increase in time until arrhythmia)	
C[C@H](NC(=O)CN)C(=O)N[C@@H](CC(N)=O)C(=O)N[C@@H](Cc1ccc(O)cc1)C(N)=O [H-GANY-NH2] (H-GANY-NH2)			21 +/− 7%
CC(=O)NCSC[C@H](NC(=O)[C@H](Cc1ccc(O)cc1)NC(=O)[C@@H]1CCCN1C(=O)[C@@H]1C[C@@H](O)CN1C(=O)CNC(=O)[C@H](C)NC(=O)CNC(=O)[C@@H](N)CSCNC(C)=O)C(N)=O [Compound 16, H-Cys(Acm)-Gly-Ala-Gly-Hyp-Pro-Tyr-Cys(Acm)-NH2] (H-C(Acm)GAG[Hyp]PYC(Acm)-NH2)	1	+ (+ refers to 15-29% increase in time until arrhythmia)	23 +/− 10%
C[C@H](NC(=O)CN)C(=O)NCC(=O)N1CCCC[C@H]1C(=O)N1CCC[C@H]1C(=O)N[C@@H](Cc1ccc(O)cc1)C(N)=O [Compound 14, H-Gly-Ala-Gly-PC-Pro-Tyr-NH2] (H-GAG[Pip]PY-NH2)	1	+ (+ refers to 15-29% increase in time until arrhythmia)	21 +/− 11%
CC(=O)N[C@@H](Cc1ccc(O)cc1)C(=O)N[C@@H](CC(=O)O)C(=O)N[C@@H](CC(N)=O)C(=O)NCC(N)=O [Ac-Y-D-N-G-NH2] (Ac-YDNG-NH2)			17 +/− 8%
C[C@H](NC(=O)CN)C(=O)NCC(=O)N1C[C@@H](O)C[C@@H]1C(=O)N1CCC[C@H]1C(=O)N[C@@H](Cc1ccc(O)cc1)C(N)=O [Compound 5, H-Gly-Ala-Gly-D-Hyp-Pro-Tyr-NH2] (H-GAG[dHyp]PY-NH2)	1	++ (++ refers to 30-50% increase in time until arrhythmia)	
CC(=O)N[C@@H](Cc1ccc(O)cc1)C(=O)N[C@H](CC(N)=O)C(=O)NCC(=O)O [Ac-Y-DN-G-OH] (Ac-Tyr-[dN]-Gly-OH)			44 +/− 10%
3(4-hydroxyphenyl)propionyl-Pro-Hyp-Gly-Ala-Gly-Lys-Lys-Lys-Lys-Lys-Lys-OH [Compound 49]	3		80 +/− 17%
CNCC(=O)N[C@@H](C)C(=O)N(C)CC(=O)N1C[C@H](O)C[C@H]1C(=O)N1CCC[C@H]1C(=O)N[C@@H](Cc1ccc(O)cc1)C(N)=O [Compound 29, H-Sar-Ala-Sar-Hyp-Pro-Tyr-NH2] (H-[Sar]A[Sar][Hyp]PY-NH2)	1	+ (+ refers to 15-29% increase in time until arrhythmia)	
C[C@H](NC(=O)CN)C(=O)NCC(=O)N1CSC[C@H]1C(=O)N1CCC[C@H]1C(=O)N[C@@H](Cc1ccc(O)cc1)C(N)=O [Compound 12, H-Gly-Ala-Gly-T4C-Pro-Tyr-NH2] (H-GAG[Thz]PY-NH2)	2	++ (++ refers to 30-50% increase in time until arrhythmia)	32 +/− 6%
H-GP[Hyp]GAG-OH [AAP, reference compound]	2		35 +/− 7%
[Pro^4]AAP10-NH2 [reference compound]	3		62 +/− 9%
H-Gly-Asn-Tyr-NH2 [Compound 41]	2	++ (++ refers to 30-50% increase in time until arrhythmia)	58 +/− 10%
NC(=O)CNC(=O)[C@H](CC(N)=O)NC(=O)[C@@H](N)Cc1ccc(O)cc1 [H-YNG-NH2] (H-Tyr-Asn-Gly-NH2)			34 +/− 9%
